Data set [1] in a line: Measurement of stability of prodrugs in buffer at pH 7.4. Format: physicochemical. The following applies: PBS buffer pH 7.4, 37° C., HPLC peak area, read-out: % Recovery after 24 h (stability at pH 7.4). On the procedure:
Preparation of the PBS buffer solution pH 7.4: 90 g sodium chloride, 13.61 g potassium dihydrogen phosphate, 83.35 g 1M aqueous sodium hydroxide were dissolved in water. More water was added up to a total volume of 1 L. This solution was diluted 1:10 with water. Eventually, pH was adjusted to pH 7.4 by the addition of phosphoric acid.
Measurement of Stability of Prodrugs in Buffer at pH 7.4
0.15 mg of the test compound were dissolved in 0.1 mL dimethylsulfoxide and 0.4 mL acetonitrile. For complete dissolution, the HPLC vial with the sample solution was shaken and treated with ultrasound. Then, 1.0 mL of PBS buffer solution pH 7.4 was added and the sample was vortexed. The sample solution was analysed by HPLC (method 8) to determine the amount of the test compound at a particular time over a period of 24 h at 37° C. The peak areas, given as percentage of total area, are used for quantification. In addition, the reaction mixture was analysed by method 9 (HPLC-MS) at the final timepoint.

The nature of data set [2]: Degradation of prodrugs and release of parent drug in rat plasma. Format: in vitro ADME. The following applies: male, Hannover-Janvier RjHan, rat plasma (Li-heparin), 37° C., percent area of prodrug at t0. On the procedure: Measurement of Release of Parent Drug in Rat Plasma 1 mg of the test compound was dissolved in 0.5 mL acetonitrile/dimethylsulfoxide 9:1. For complete dissolution the HPLC vial was shaken and treated with ultrasound. 20 μL of this solution were added to 1 mL of rat plasma (Li-heparin plasma, Hannover-Janvier rat, RjHan male) with vortexing at a temperature of 37° C. Aliquots (100 μL each) were taken at 0.17, 0.5, 1, 1.5, 2 and 4 hours. Each aliquot was transferred to a vial containing 300 μL of acetonitrile/citric acid buffer pH 3 8:2. These solutions were centrifuged at 5000 rpm for 10 minutes. The supernatant was analysed by HPLC (Method 8) to determine the amount of the test compound. In addition, the reaction mixture was analysed by method 9 (HPLC-MS) at the final timepoint. Both decrease of the prodrug concentration and increase of parent drug concentration were monitored. All data is given as percent area of the prodrug at to.

For data set [3], the system named is Dermacentor variabilis nymph. Nature of the data set: Antiparasitic activity after administration to rats: ticks. The following applies: Dermacentor variabilis nymph; for In-vivo Efficacy SD2: study day 2; for In-vivo Efficacy SD9: study day 9; for In-vivo Efficacy SD16: study day 16; for In-vivo Efficacy SD23: study day 23; for In-vivo Efficacy SD30: study day 30; for In-vivo Efficacy SD37: study day 37. It is filed as in vivo. On the procedure: (§1) Measurement of the Antiparasitic Activity after Administration of a Prodrug to Rats Compounds were dissolved in the appropriate volume of glycerol formal (p.a.) just before application to the animals (dose volume was adjusted to 0.03 mL/kg bodyweight). 5 rats per group were either injected intraperitoneally or subcutaneously. Rats were infested with 30 Dermacentor variabilis nymphs on study days −2, 7, 14, 21, 28, 35 and 30 adult Ctenocephalides fleas on study days −1, 8, 15, 22, 29, 36. Parasite counts were performed on study days 2, 9, 16, 23, 30, 37. Percent efficacy was calculated as arithmetic mean parasite numbers as life attached tick numbers and live flea numbers of the respective study group in comparison to parasite counts on a placebo-treated control group. Infestation of groups with less than 75% efficacy on two consecutive counting occasions will terminated for the respective parasite.

The nature of data set [4]: Measurement of solubility in buffer at pH 6.5. It is filed as physicochemical. As to conditions: aqueous buffer, kinetic from dmso stock; PBS buffer pH 6.5, shaken 24 h at rt, LC-MSMS; read-out: Solubility of example compounds at pH 6.5. On the procedure:
Measurement of Solubility in Buffer at pH 6.5 2-4 mg of the test compound are dissolved in DMSO to reach a concentration of 50 g/L (solution A). To 10 μL of this solution 960 μL PBS buffer pH 6.5 are added (final concentration: […]); the mixture is shaken for 24 h at rt in a 96 well plate. An aliquot is centrifuged at 42000 rpm für 30 min. The supernatant is diluted with acetonitrile/water (8:2) 1:10 and 1:1000 resp. This diluted samples are analyzed by LC-MSMS. Calibration: 10 μL of solution A are diluted with 823 μL DMSO (final concentration: 600 μg/mL), which is further diluted with acetonitrile/water 8:2 by a factor of 100 (provides solution B). The calibration curve is obtained from solution B by further diluting with acetonitrile/water 8:2 with target concentrations of 1.2-12-60-600 ng/mL and injecting these four solutions for MS measurement. PBS-Puffer: 6.18 g sodium chloride and 3.96 g sodium dihydrogen phosphate are dissolved in 1 L aqua dist., the pH is adjusted to 6.5 with IN sodium hydroxide.

Data set [5] relates to Ctenocephalides felis adult. Nature of the data set: Antiparasitic activity after administration to rats: fleas. Format: in vivo. As to conditions: Ctenocephalides felis adult; for In-vivo Efficacy SD2: study day 2; for In-vivo Efficacy SD9: study day 9; for In-vivo Efficacy SD16: study day 16; for In-vivo Efficacy SD23: study day 23; for In-vivo Efficacy SD30: study day 30; for In-vivo Efficacy SD37: study day 37. How it is done:
as §1

In brackets after ≈: the same amount, converted by molar mass.

Turning to `N#CC1(N(COC(=O)CCCC(=O)O)C(=O)c2cc(-c3cnn(-c4c(Cl)cc(C(F)(C(F)(F)F)C(F)(F)F)cc4OC(F)(F)F)c3)ccc2Cl)CC1` [Example 9, 5-{[(2-Chloro-5-{1-[2-chloro-4-(1,1,1,2,3,3,3-heptafluoropropan-2-yl)-6-(trifluoromethoxy)phenyl]-1H-pyrazol-4-yl}benzoyl)(1-cyanocyclopropyl)amino]methoxy}-5-oxopentanoic acid], in data set [1], the recovery at 24 h, 0.1 mg/mL was 100%. In data set [2], the recovery at 0.17 h, 39 µg/mL turned out to be 89%; the recovery at 0.5 h, 39 µg/mL came to 77%; the recovery at 1 h, 39 µg/mL is 66%; the recovery at 1.5 h, 39 µg/mL was determined as 56%. In addition, in data set [2], the recovery at 2 h, 39 µg/mL is 48% and the recovery at 4 h, 39 µg/mL turned out to be 29%. In data set [3] (12.22 mg/kg sc), the “In-vivo Efficacy SD2” value turned out to be 99%, the “In-vivo Efficacy SD9” value is 100%, the “In-vivo Efficacy SD16” value came to 96% and the “In-vivo Efficacy SD23” value is 98%. Also, in data set [3] (12.22 mg/kg sc), the “In-vivo Efficacy SD30” value is on record as 85% and the “In-vivo Efficacy SD37” value came to 49%. Moreover, the solubility (commonly the concentration that dissolves in the medium under given conditions) at 24 h in data set [4] stood at 10 µg/mL (≈ 12.6 µM). Also, in data set [5] (12.22 mg/kg sc), the “In-vivo Efficacy SD2” value is given as 100%, the “In-vivo Efficacy SD9” value is reported as 97%, the “In-vivo Efficacy SD16” value came to 96% and the “In-vivo Efficacy SD23” value is given as 97%. In data set [5] (12.22 mg/kg sc), the “In-vivo Efficacy SD30” value is reported as 91% and the “In-vivo Efficacy SD37” value is 46%.
For the compound `N#CC1(N(COC(=O)[C@H]2CC[C@H](C(=O)O)CC2)C(=O)c2cc(-c3cnn(-c4c(Cl)cc(C(F)(C(F)(F)F)C(F)(F)F)cc4OC(F)(F)F)c3)ccc2Cl)CC1` [Example 11, (trans)-4-({[(2-Chloro-5-{1-[2-chloro-4-(1,1,1,2,3,3,3-heptafluoropropan-2-yl)-6-(trifluoromethoxy)phenyl]-1H-pyrazol-4-yl}benzoyl)(1-cyanocyclopropyl)amino]methoxy}carbonyl)cyclohexane-1-carboxylic acid], the recovery at 24 h, 0.1 mg/mL in data set [1] amounted to 100%. For the same compound, in data set [2], the recovery at 0.17 h, 39 µg/mL came to 98%; the recovery at 0.5 h, 39 µg/mL was found to be 96%; the recovery at 1 h, 39 µg/mL was determined as 92%; the recovery at 1.5 h, 39 µg/mL came to 89%. Also, in data set [2], the recovery at 2 h, 39 µg/mL stood at 86% and the recovery at 4 h, 39 µg/mL came out at 74%. In data set [3] (12.84 mg/kg sc), the “In-vivo Efficacy SD2” value is reported as 100%, the “In-vivo Efficacy SD9” value is listed as 100%, the “In-vivo Efficacy SD16” value was determined as 100% and the “In-vivo Efficacy SD23” value came to 100%. Further, in data set [3] (12.84 mg/kg sc), the “In-vivo Efficacy SD30” value is 96% and the “In-vivo Efficacy SD37” value is reported as 71%. The solubility at 24 h in data set [4] amounted to 5 µg/mL (≈ 6 µM). Further, in data set [5] (12.84 mg/kg sc), the “In-vivo Efficacy SD2” value came out at 100%, the “In-vivo Efficacy SD9” value is recorded as 100%, the “In-vivo Efficacy SD16” value came to 100% and the “In-vivo Efficacy SD23” value was determined as 100%. For the same compound, in data set [5] (12.84 mg/kg sc), the “In-vivo Efficacy SD30” value is 97% and the “In-vivo Efficacy SD37” value is given as 76%.
Take `N#CC1(N(COC(=O)Cc2ccc(C(=O)O)cc2)C(=O)c2cc(-c3cnn(-c4c(Cl)cc(C(F)(C(F)(F)F)C(F)(F)F)cc4OC(F)(F)F)c3)ccc2Cl)CC1` [Example 15, 4-(2-{[(2-Chloro-5-{1-[2-chloro-4-(1,1,1,2,3,3,3-heptafluoropropan-2-yl)-6-(trifluoromethoxy)phenyl]-1H-pyrazol-4-yl}benzoyl)(1-cyanocyclopropyl)amino]methoxy}-2-oxoethyl)benzoic acid]: the recovery at 24 h, 0.1 mg/mL in data set [1] stood at 100%. Besides, in data set [2], the recovery at 0.17 h, 39 µg/mL was found to be 94%; the recovery at 0.5 h, 39 µg/mL was 81%; the recovery at 1 h, 39 µg/mL was determined as 62%; the recovery at 1.5 h, 39 µg/mL came out at 47%. Besides, in data set [2], the recovery at 2 h, 39 µg/mL is 36% and the recovery at 4 h, 39 µg/mL amounted to 10%. Also, in data set [3] (12.96 mg/kg sc), the “In-vivo Efficacy SD2” value worked out at 100%, the “In-vivo Efficacy SD9” value came to 100%, the “In-vivo Efficacy SD16” value was 100% and the “In-vivo Efficacy SD23” value is given as 100%. In data set [3] (12.96 mg/kg sc), the “In-vivo Efficacy SD30” value is 100% and the “In-vivo Efficacy SD37” value came to 100%. For the same compound, the “In-vivo Efficacy SD42” value in data set [3] (12.96 mg/kg sc, study day 42) worked out at 96%. Further, the solubility at 24 h in data set [4] was found to be 5 µg/mL (≈ 5.94 µM). In addition, in data set [5] (12.96 mg/kg sc), the “In-vivo Efficacy SD2” value was 100%, the “In-vivo Efficacy SD9” value amounted to 100%, the “In-vivo Efficacy SD16” value is listed as 100% and the “In-vivo Efficacy SD23” value is given as 99%. Besides, in data set [5] (12.96 mg/kg sc), the “In-vivo Efficacy SD30” value was 96% and the “In-vivo Efficacy SD37” value was found to be 81%. For the same compound, the “In-vivo Efficacy SD42” value in data set [5] (12.96 mg/kg sc, study day 42) is reported as 75%.

The values are drawn from patent US20220306585A1, “PYRAZOLE DERIVATIVES FOR CONTROLLING ARTHROPODS” (Bayer Animal Health GmbH, priority 2019, published 2022).
